Results taken from US20070048250A1, “Methods of treating concomitant constipation in a cancer treatment regimen including imexon” (AmpliMed Corporation, priority 2005, published 2007).

Legend:
patients = experiment: clinical study of imexon to treat cancer: adverse events (daily dose 5 consecutive days per week, every other week, four-week cycle); type: in vivo, human
From the text: As described hereinbefore, it has been found, unexpectedly, that the administration of a pharmaceutical composition comprising imexon induces constipation in a large percentage of patients. Of forty nine (49) patients taking part in a clinical study investigating the use of imexon to treat cancer, thirty one (31) patients (63.3%) were reported to have had the gastrointestinal toxicity of constipation in association with their treatment with imexon. […] All other observed gastrointestinal adverse events individually accounted for less than 5% of total gastrointestinal adverse events.
Of the forty nine (49) patients treated in the clinical study, thirty nine (39) received imexon at a dose equal to or greater than 140 mg/m^2, thirty three (33) received imexon at a dose equal to or greater than 185 mg/m^2, and thirty (30) received imexon at a dose equal to or greater than 245 mg/m^2.
Of these seventy three (73) constipation adverse events, fifty two (52) of the adverse events (71.2%) were characterized as “possibly,” “probably,” or “definitely related to the treatment” of the patient with imexon.

human tumor cell lines = settings: cited from earlier work
cancer patients = settings: phase I; cited from earlier work
[1] = 750 mg/m^2, relationship Definite
[2] = 750 mg/m^2, relationship Possible
[3] = 750 mg/m^2, relationship Probable
[4] = 875 mg/m^2, relationship Definite
[5] = 875 mg/m^2, relationship Possible
[6] = 875 mg/m^2, relationship Probable
[7] = 1000 mg/m^2, relationship Probable
[8] = all doses 20-1000 mg/m^2 (Total), relationship Definite
[9] = all doses 20-1000 mg/m^2 (Total), relationship Not Related
[10] = all doses 20-1000 mg/m^2 (Total), relationship Possible
[11] = all doses 20-1000 mg/m^2 (Total), relationship Probable
[12] = all doses 20-1000 mg/m^2 (Total), relationship Unlikely
[13] = all doses 20-1000 mg/m^2, 49 patients, all relationships (Total)
[14] = dose equal to or greater than 185 mg/m^2
[15] = dose equal to or greater than 245 mg/m^2

## N=C1NC(=O)N2CC12 (stereo not shown) [imexon, 4-imino-1,3-diazabicyclo[3.1.0]-hexan-2-one]
patients; 570 mg/m^2, relationship Unlikely
  Constipation Adverse Events, Total: 0
patients; [1]
  Constipation Adverse Events, Grade 1: 1
  Constipation Adverse Events, Grade 2: 4
  Constipation Adverse Events, Grade 3: 3
  Constipation Adverse Events, Total: 8
patients; 750 mg/m^2, relationship Not Related
  Constipation Adverse Events, Total: 0
patients; [2]
  Constipation Adverse Events, Grade 1: 2
  Constipation Adverse Events, Total: 2
patients; [3]
  Constipation Adverse Events, Grade 2: 2
  Constipation Adverse Events, Total: 2
patients; 750 mg/m^2, relationship Unlikely
  Constipation Adverse Events, Total: 0
patients; [4]
  Constipation Adverse Events, Grade 1: 2
  Constipation Adverse Events, Grade 2: 1
  Constipation Adverse Events, Grade 3: 1
  Constipation Adverse Events, Total: 4
patients; 875 mg/m^2, relationship Not Related
  Constipation Adverse Events, Total: 0
patients; [5]
  Constipation Adverse Events, Grade 2: 1
  Constipation Adverse Events, Total: 1
patients; [6]
  Constipation Adverse Events, Grade 1: 1
  Constipation Adverse Events, Total: 1
patients; 875 mg/m^2, relationship Unlikely
  Constipation Adverse Events, Total: 0
patients; 1000 mg/m^2, relationship Definite
  Constipation Adverse Events, Total: 0
patients; 1000 mg/m^2, relationship Not Related
  Constipation Adverse Events, Total: 0
patients; 1000 mg/m^2, relationship Possible
  Constipation Adverse Events, Total: 0
patients; [7]
  Constipation Adverse Events, Grade 2: 1
  Constipation Adverse Events, Total: 1
patients; 1000 mg/m^2, relationship Unlikely
  Constipation Adverse Events, Total: 0
patients; 49 patients
  all other observed gastrointestinal adverse events, individually, as share of total gastrointestinal adverse events: less than 5%
  anorexia as share of total gastrointestinal adverse events: 13.4%
  constipation adverse events as share of all gastrointestinal adverse events: 21.8%
  diarrhea as share of total gastrointestinal adverse events: 10.5%
  nausea as share of all gastrointestinal adverse events: 23.0%
  vomiting as share of total gastrointestinal adverse events: 11.9%
patients; [8]
  Constipation Adverse Events, Grade 1: 4
  Constipation Adverse Events, Grade 2: 9
  Constipation Adverse Events, Grade 3: 6
  Constipation Adverse Events, Grade 4: 0
  Constipation Adverse Events, Grade 5: 0
  Constipation Adverse Events, Total: (Total) 19
patients; [9]
  Constipation Adverse Events, Grade 1: 1
  Constipation Adverse Events, Grade 2: 10
  Constipation Adverse Events, Grade 3: 6
  Constipation Adverse Events, Grade 4: 0
  Constipation Adverse Events, Grade 5: 0
  Constipation Adverse Events, Total: (Total) 17
patients; [10]
  Constipation Adverse Events, Grade 1: 3
  Constipation Adverse Events, Grade 2: 8
  Constipation Adverse Events, Grade 3: 1
  Constipation Adverse Events, Grade 4: 0
  Constipation Adverse Events, Grade 5: 0
  Constipation Adverse Events, Total: (Total) 12
patients; [11]
  Constipation Adverse Events, Grade 1: 5
  Constipation Adverse Events, Grade 2: 14
  Constipation Adverse Events, Grade 3: 2
  Constipation Adverse Events, Grade 4: 0
  Constipation Adverse Events, Grade 5: 0
  Constipation Adverse Events, Total: (Total) 21
patients; [12]
  Constipation Adverse Events, Grade 1: 1
  Constipation Adverse Events, Grade 2: 2
  Constipation Adverse Events, Grade 3: 1
  Constipation Adverse Events, Grade 4: 0
  Constipation Adverse Events, Grade 5: 0
  Constipation Adverse Events, Total: (Total) 4
patients; [13]
  Constipation Adverse Events, Grade 1: (Total) 14
  Constipation Adverse Events, Grade 2: (Total) 43
  Constipation Adverse Events, Grade 3: (Total) 16
  Constipation Adverse Events, Grade 4: (Total) 0
  Constipation Adverse Events, Grade 5: (Total) 0
  Constipation Adverse Events, Total: 73
patients; all doses 20-1000 mg/m^2, 49 patients, all relationships (Total), listed as Imexon
  Constipation Adverse Events, Total: (Total) 73
patients; [14]
  constipation adverse events characterized as possibly, probably, or definitely related to the treatment: 94.4%
  constipation adverse events characterized as probably, or definitely related to the treatment: 72.2%
  constipation adverse events in total: 54
patients; [15]
  constipation adverse events characterized as possibly, probably, or definitely related to the treatment: 96.1%
  constipation adverse events characterized as probably, or definitely related to the treatment: 74.5%
  constipation adverse events in total: 51
Human tumor cell lines
  activity against a variety of human tumor cell lines in culture: active
Cancer patients
  clinical response: produced objective responses or stabilized neoplastic diseases
  tolerability: well tolerated
